Data set [1] can be described thus: LC-MS analysis of the TGA samples for thermal isomerization to isomidazolam. The format is physicochemical. The settings on record: LC-MS of sample after TGA at 200° C. for 50 minutes.
The conditions of data set [2]: for weight remaining of starting sample (TGA): heated at 200° C. for 50 minutes.
Procedure: To test the stable ion-pair hypothesis, TGA of PTSA, midazolam, and their combined salt pair were heated at 200° C. for 50 minutes and their decomposition rates were compared (FIG. 13).
The nature of data set [3]: pH titration of the carboxylate with mother liquor analysis (solubility versus pH). The format is physicochemical. The settings on record: pH values below 1, methanol/KOH saponification mixture titrated with acid. As for the experimental part: Saponification of midazolam ethyl ester to the carboxylic acid was performed both in batch and flow, but poor solubility limited the throughput of a continuous manufacturing approach. Therefore, the reaction was run as a batch in a methanol/KOH solution. Much of the R&D on this process step revolved around the reactive crystallization of the carboxylic acid product. […] An initial screen was performed by titrating a batch of the carboxylate and analyzing the mother liquor at decreasing pH values to determine the pH value with the highest yield (FIG. 10).
The titration experiment determined that pH 5.5-6.0 would provide the highest yielding crystallization. At pH values lower than this, the solubility of the product increases again until it is fully soluble at pH values below 1. […] This was an attractive development as the ring open form had been previously reported to provide a purer decarboxylation. The ring quickly closes in neutral solvent, and the diastereomeric methylene resonances appear clearly between 4-6 ppm. […] To test this hypothesis, we performed […] batch reactions and crystallization at pH 1, and 5.5. The solid products were characterized by thermogravimetric analysis and ^1H NMR spectroscopy (FIGS. 11A and 11B).

Take `Cc1ccc(S(=O)(=O)O)cc1.Cc1ncc2n1-c1ccc(Cl)cc1C(c1ccccc1F)=NC2` [midazolam:PTSA pair]: the “isomidazolam formed in TGA sample” value in data set [1] was found to be 1 % LCAP. Besides, the “weight remaining of starting sample (TGA)” value in data set [2] is 90 weight %.

On to “8-chloro-6-(2-fluorophenyl)-1-methyl-4H-imidazo[1,5-a][1,4]benzodiazopine [Midazolam, reference compound]”, for which the “isomidazolam formed in TGA sample” value in data set [1] was 12 % LCAP. Also, in data set [2], the “weight remaining of starting sample (TGA)” value is on record as 65 weight %.

In the case of `Cc1ccc(S(=O)(=O)O)cc1` [PTSA, para-toluenesulfonic acid], in data set [2] (heated at 200° C., within 40 minutes of heating), the “weight remaining (TGA)” value is on record as about 10 weight %.

Consider `Cc1nc(C(=O)O)c2n1-c1ccc(Cl)cc1C(c1ccccc1F)=NC2` [Midazolam carboxylic acid, 8-chloro-6-(2-fluorophenyl)-1-methyl-4H-imidazo[1,5-a][1,4]benzodiazopine-3-carboxylic acid], for which the “solubility of the product” value in data set [3] is given as “fully soluble”.

(Values after patent US20240109848A1, “PROCESS FOR THE PREPARATION OF IMIDAZOBENZODIAZEPINES” (ODH IP Corp., priority 2022, published 2024).)
